Experimental data as given in patent US9487749B2 (priority 2009, dated 2016).

Tests used:
Aspergillus niger = assay: USP Antimicrobial Effectiveness Test (AET) of MSM supplemented TSB; format: cell-based; design: key to AET test results (microorganism count): Colonies too numerous to count (TNTC); settings: for Log Reduction from Initial Microorganism Inoculum: 1:10 dilution of MSM, 14 Days, 28 Days; for AET test results (microorganism count): 48 hrs
Source text: (§1) Compounds or formulated products having antimicrobial activity may be evaluated with the United States Pharmacopeia (USP) Antimicrobial Effectiveness Test (AET). The AET involves the addition of specified microorganisms (Candida albicans, Aspergillus niger, Escherichia coli, Pseudomonas aeruginosa and Staphylococcus aureus) directly to a test product at relatively high concentrations to simulate contamination. The product is held for one month, with weekly analysis of microorganism levels. […] For yeast and mold, no increase from the initial inoculums level is permitted. […] Inoculations were made using Candida albicans, Aspergillus niger, Escherichia coli, Pseudomonas aeruginosa and Staphylococcus aureus. Tryptic soy broth (TSB) was used as the culturing media. […] The inoculated media was held for one month, during which time the added microorganisms were enumerated weekly to determine if they were growing, dying off, or remaining near the initial inoculation level. […] The acceptance criteria for antimicrobial effectiveness are described in detail in the USP, herein incorporated by reference.

Candida albicans = assay: as above; format: cell-based; design: key to AET test results (microorganism count): Colonies too numerous to count (TNTC); settings: for Log Reduction from Initial Microorganism Inoculum: 1:10 dilution of MSM, 14 Days, 28 Days; for AET test results (microorganism count): 48 hrs
Source text: as §1

Staphylococcus aureus = assay: as above; format: cell-based; design: key to AET test results (microorganism count): Colonies too numerous to count (TNTC); settings: for Log Reduction from Initial Microorganism Inoculum: 1:10 dilution of MSM, 14 Days, 28 Days; for AET test results (microorganism count): 48 hrs
Source text: as §1

Salmonella typhimurium = assay: as above; format: cell-based; design: key: Colonies too numerous to count (TNTC); settings: 48 hrs
E. coli = E. coli log growth in MSM-lactose broth with or without DMSO; format: cell-based, Escherichia coli
Description: Lactose broth, free of both NaCl and of proteins, was used as the media in this experiment. […] Each media composition was initially inoculated with 6.75×10^6 cfu/mL of E. coli. Cultures were incubated at 25° C. for seven days. Aliquots of each culture were taken after 24 hours of culturing and at the end of seven days in culture. Aliquots were serially diluted (with Modified Letheen diluent) and plated on trypto-soy agar plates.

Bacillus coagulans = Bacillus coagulans growth in simulated gastric acid supplemented with MSM; format: cell-based; settings: simulated gastric acid pH 1.2
[1] = system: Bifidobacterium bifidum ATCC #29521; assay: Bifidobacterium bifidum growth in media fortified with MSM, 96 hours; format: cell-based
[2] = system: MDCK cells (ATCC # CCL-34); assay: Cytotoxicity of MSM on host cells; settings: for Test Product Cytotoxicity: MDCK
Description: Determination of test product cytotoxicity. The highest non-cytotoxic concentration of the test product was determined prior to the test.
B. Toxicity Control for Pre-Treatment Test.

Q: Which results are given for `CS(C)(=O)=O` [MSM, Methylsulfonylmethane]?
A: Log Reduction from Initial Microorganism Inoculum (Aspergillus niger; after 14 days): 4.3 log; Log Reduction from Initial Microorganism Inoculum (Aspergillus niger; after 28 days): 4.5 log; AET test results (microorganism count) (Aspergillus niger; 1:100 dilution of MSM in TSB): TNTC*; AET test results (microorganism count) (Aspergillus niger; 1:1000 dilution of MSM in TSB): TNTC*; Log Reduction from Initial Microorganism Inoculum (Candida albicans; after 14 days): 4.2 log; Log Reduction from Initial Microorganism Inoculum (Candida albicans; after 28 days): 4.4 log; AET test results (microorganism count) (Candida albicans; 1:100 dilution of MSM in TSB): TNTC; AET test results (microorganism count) (Candida albicans; 1:1000 dilution of MSM in TSB): TNTC; Log Reduction from Initial Microorganism Inoculum (Staphylococcus aureus; after 14 days): 4.5 log; Log Reduction from Initial Microorganism Inoculum (Staphylococcus aureus; after 28 days): 4.7 log; AET test results (microorganism count) (Staphylococcus aureus; 1:100 dilution of MSM in TSB): TNTC; AET test results (microorganism count) (Staphylococcus aureus; 1:1000 dilution of MSM in TSB): TNTC; AET test results (microorganism count) (Salmonella typhimurium; 1:100 dilution of MSM in TSB): TNTC; AET test results (microorganism count) (Salmonella typhimurium; 1:1000 dilution of MSM in TSB): TNTC; reduction of bacterial growth (E. coli; 11% MSM, 24 hours (maximum)): about 2.2 logs; reduction of bacterial growth (E. coli; 16% MSM, 24 hours): about 1 log; Log Growth of Bacillus coagulans average (Bacillus coagulans; 5% MSM, hour 0): 0.26 log; Log Growth of Bacillus coagulans in duplicate (Bacillus coagulans; 5% MSM, hour 3): 0 log; Log Growth of Bacillus coagulans average (Bacillus coagulans; 5% MSM, hour 3): 0 log; Log Growth of Bacillus coagulans in duplicate (Bacillus coagulans; 5% MSM, hour 6): 0 log; Log Growth of Bacillus coagulans average (Bacillus coagulans; 5% MSM, hour 6): 0 log; Log Growth of Bacillus coagulans in duplicate (Bacillus coagulans; 5% MSM, hour 9): 0 log; Log Growth of Bacillus coagulans average (Bacillus coagulans; 5% MSM, hour 9): 0 log; Log Growth of Bacillus coagulans in duplicate (Bacillus coagulans; 5% MSM, hour 12): 0 log; Log Growth of Bacillus coagulans average (Bacillus coagulans; 5% MSM, hour 12): 0 log; Log Growth of Bacillus coagulans average (Bacillus coagulans; 5% MSM, hour 15): 0.26 log; Log Growth of Bacillus coagulans in duplicate (Bacillus coagulans; 5% MSM, hour 24): 0 log; Log Growth of Bacillus coagulans average (Bacillus coagulans; 5% MSM, hour 24): 0 log; Log Growth of Bacillus coagulans in duplicate (Bacillus coagulans; 5% MSM, hour 48): 0 log; Log Growth of Bacillus coagulans average (Bacillus coagulans; 5% MSM, hour 48): 0 log; Log Growth of Bacillus coagulans in duplicate (Bacillus coagulans; […] MSM, hour 0): 0 log; Log Growth of Bacillus coagulans in duplicate (Bacillus coagulans; […] MSM, hour 3): 0 log; Log Growth of Bacillus coagulans in duplicate (Bacillus coagulans; […] MSM, hour 9): 0 log; Log Growth of Bacillus coagulans average (Bacillus coagulans; […] MSM, hour 9): 0 log; Log Growth of Bacillus coagulans in duplicate (Bacillus coagulans; […] MSM, hour 12): 0 log; Log Growth of Bacillus coagulans in duplicate (Bacillus coagulans; […] MSM, hour 15): 0 log; Log Growth of Bacillus coagulans average (Bacillus coagulans; […] MSM, hour 15): 0 log; Log Growth of Bacillus coagulans in duplicate (Bacillus coagulans; […] MSM, hour 24): 0 log; Log Growth of Bacillus coagulans average (Bacillus coagulans; […] MSM, hour 24): 0 log; Log Growth of Bacillus coagulans in duplicate (Bacillus coagulans; […] MSM, hour 48): 0 log; Log Growth of Bacillus coagulans average (Bacillus coagulans; […] MSM, hour 48): 0 log; Log Growth of Bifidobacteruim bifidum in Media Fortified with MSM ([1]; 0.125% MSM, Hr 0): 1.12 log; Log Growth of Bifidobacteruim bifidum in Media Fortified with MSM ([1]; 0.125% MSM, Hr 8): 2.89 log; Log Growth of Bifidobacteruim bifidum in Media Fortified with MSM ([1]; 0.125% MSM, Hr 16): 7.85 log; Log Growth of Bifidobacteruim bifidum in Media Fortified with MSM ([1]; 0.125% MSM, Hr 24): 9.06 log; Log Growth of Bifidobacteruim bifidum in Media Fortified with MSM ([1]; 0.125% MSM, Hr 32): 11.45 log; Log Growth of Bifidobacteruim bifidum in Media Fortified with MSM ([1]; 0.125% MSM, Hr 40): 10.80 log; Log Growth of Bifidobacteruim bifidum in Media Fortified with MSM ([1]; 0.125% MSM, Hr 48): 8.22 log; Log Growth of Bifidobacteruim bifidum in Media Fortified with MSM ([1]; 0.125% MSM, Hr 56): 7.25 log; Log Growth of Bifidobacteruim bifidum in Media Fortified with MSM ([1]; 0.125% MSM, Hr 64): 8.86 log; Log Growth of Bifidobacteruim bifidum in Media Fortified with MSM ([1]; 0.125% MSM, Hr 72): 6.59 log; Log Growth of Bifidobacteruim bifidum in Media Fortified with MSM ([1]; 0.125% MSM, Hr 80): 9.12 log; Log Growth of Bifidobacteruim bifidum in Media Fortified with MSM ([1]; 0.125% MSM, Hr 88): 9.12 log; Log Growth of Bifidobacteruim bifidum in Media Fortified with MSM ([1]; 0.125% MSM, Hr 96): <6.00 log; logs higher than the maximum of the control ([1]; 0.5% MSM): 0.5 logs; logs higher than the control ([1]; 0.5% MSM, hour 96): approximately 2 logs; logs of growth ([1]; 0.5% MSM, hour 96): 8.82 logs; Log Growth of Bifidobacteruim bifidum in Media Fortified with MSM ([1]; 0.5% MSM, Hr 0): 1.00 log; Log Growth of Bifidobacteruim bifidum in Media Fortified with MSM ([1]; 0.5% MSM, Hr 8): 2.84 log; Log Growth of Bifidobacteruim bifidum in Media Fortified with MSM ([1]; 0.5% MSM, Hr 16): 7.45 log; Log Growth of Bifidobacteruim bifidum in Media Fortified with MSM ([1]; 0.5% MSM, Hr 24): 8.81 log; Log Growth of Bifidobacteruim bifidum in Media Fortified with MSM ([1]; 0.5% MSM, Hr 32): 11.22 log; Log Growth of Bifidobacteruim bifidum in Media Fortified with MSM ([1]; 0.5% MSM, Hr 40): 12.09 log; Log Growth of Bifidobacteruim bifidum in Media Fortified with MSM ([1]; 0.5% MSM, Hr 48): 9.39 log; Log Growth of Bifidobacteruim bifidum in Media Fortified with MSM ([1]; 0.5% MSM, Hr 56): 9.51 log; Log Growth of Bifidobacteruim bifidum in Media Fortified with MSM ([1]; 0.5% MSM, Hr 64): 10.34 log; Log Growth of Bifidobacteruim bifidum in Media Fortified with MSM ([1]; 0.5% MSM, Hr 72): 8.35 log; Log Growth of Bifidobacteruim bifidum in Media Fortified with MSM ([1]; 0.5% MSM, Hr 80): 10.38 log; Log Growth of Bifidobacteruim bifidum in Media Fortified with MSM ([1]; 0.5% MSM, Hr 88): 9.70 log; Log Growth of Bifidobacteruim bifidum in Media Fortified with MSM ([1]; 0.5% MSM, Hr 96): 8.82 log; logs of growth (estimated, outside the countable range) ([1]; 1% MSM, Hour 96): less than 6 logs; Log Growth of Bifidobacteruim bifidum in Media Fortified with MSM ([1]; 1% MSM, Hr 0): 1.00 log; Log Growth of Bifidobacteruim bifidum in Media Fortified with MSM ([1]; 1% MSM, Hr 8): 2.73 log; Log Growth of Bifidobacteruim bifidum in Media Fortified with MSM ([1]; 1% MSM, Hr 16): 7.73 log; Log Growth of Bifidobacteruim bifidum in Media Fortified with MSM ([1]; 1% MSM, Hr 24): 8.81 log; Log Growth of Bifidobacteruim bifidum in Media Fortified with MSM ([1]; 1% MSM, Hr 32): 11.49 log; Log Growth of Bifidobacteruim bifidum in Media Fortified with MSM ([1]; 1% MSM, Hr 40): 11.19 log; Log Growth of Bifidobacteruim bifidum in Media Fortified with MSM ([1]; 1% MSM, Hr 48): 10.43 log; Log Growth of Bifidobacteruim bifidum in Media Fortified with MSM ([1]; 1% MSM, Hr 56): 10.57 log; Log Growth of Bifidobacteruim bifidum in Media Fortified with MSM ([1]; 1% MSM, Hr 64): 10.66 log; Log Growth of Bifidobacteruim bifidum in Media Fortified with MSM ([1]; 1% MSM, Hr 72): 8.34 log; Log Growth of Bifidobacteruim bifidum in Media Fortified with MSM ([1]; 1% MSM, Hr 80): 9.43 log; Log Growth of Bifidobacteruim bifidum in Media Fortified with MSM ([1]; 1% MSM, Hr 88): 10.41 log; Log Growth of Bifidobacteruim bifidum in Media Fortified with MSM ([1]; 1% MSM, Hr 96): <6.00 log; log increase of growth ([1]; 1% MSM, listed as order: Hour 80, Hour 88): 1 log; extension of the stationary phase ([1]; 5% MSM): 40 h; logs lower than the control ([1]; 5% MSM, Hour 48): 0.7 logs; Log Growth of Bifidobacteruim bifidum in Media Fortified with MSM ([1]; 5% MSM, Hr 0): 1.12 log; Log Growth of Bifidobacteruim bifidum in Media Fortified with MSM ([1]; 5% MSM, Hr 8): 2.04 log; Log Growth of Bifidobacteruim bifidum in Media Fortified with MSM ([1]; 5% MSM, Hr 16): 6.10 log; Log Growth of Bifidobacteruim bifidum in Media Fortified with MSM ([1]; 5% MSM, Hr 24): 8.43 log; Log Growth of Bifidobacteruim bifidum in Media Fortified with MSM ([1]; 5% MSM, Hr 32): 11.13 log; Log Growth of Bifidobacteruim bifidum in Media Fortified with MSM ([1]; 5% MSM, Hr 40): 11.78 log; Log Growth of Bifidobacteruim bifidum in Media Fortified with MSM ([1]; 5% MSM, Hr 48): 10.70 log; Log Growth of Bifidobacteruim bifidum in Media Fortified with MSM ([1]; 5% MSM, Hr 56): 10.59 log; Log Growth of Bifidobacteruim bifidum in Media Fortified with MSM ([1]; 5% MSM, Hr 64): 14.32 log; Log Growth of Bifidobacteruim bifidum in Media Fortified with MSM ([1]; 5% MSM, Hr 72): 8.65 log; Log Growth of Bifidobacteruim bifidum in Media Fortified with MSM ([1]; 5% MSM, Hr 80): 12.20 log; Log Growth of Bifidobacteruim bifidum in Media Fortified with MSM ([1]; 5% MSM, Hr 88): 12.31 log; Log Growth of Bifidobacteruim bifidum in Media Fortified with MSM ([1]; 5% MSM, Hr 96): 9.60 log; log increase of growth ([1]; […] MSM, Hour 88): 1 log; logs higher than the maximum of the control ([1]; […] MSM, maximum): 0.72 logs; Log Growth of Bifidobacteruim bifidum in Media Fortified with MSM ([1]; […] MSM, Hr 96): <6.00 log; logs higher in growth rate compared to the control ([1]; […] MSM, listed as order: hour 40, Hour 56 to hour 72): 0.7 logs; maximum growth reached before the control ([1]; all MSM concentrations (hour 32 vs hour 48)): 16 h; Test Product Cytotoxicity (Vero cells (ATCC#CCL-81)): 00; Test Product Cytotoxicity ([2]; 0.5%): 00; Test Product Cytotoxicity ([2]; 1%): 00; Test Product Cytotoxicity ([2]; 2%): 00; Test Product Cytotoxicity ([2]; 3%): 00; Test Product Cytotoxicity ([2]; 4%): 00; Test Product Cytotoxicity ([2]; 5%): 00; cytotoxic effect ([2]; MSM concentrations 6% through 0.5%): no visible cytotoxic effect
